From patent publication US11753407B2, “Compounds for treating spinal muscular atrophy” (PTC Therapeutics, Inc., priority 2012, dated 2023) come the findings set out here.

What is called melting point is the temperature, or range, at which the solid turns liquid.

Some results are limits rather than exact numbers.

In series [1] the test system is Smn protein in SMA patient fibroblast cells (GM03813). Put plainly: Smn protein assay in cultured cells (SMN HTRF). In kind it is cell-based, human. To be noted: SMA patient fibroblast cells, 48 hours; for EC1.5x for Smn protein expression: 7-point concentration curve, SMN HTRF, concentration producing 1.5 times Smn protein vs DMSO vehicle control; for maximum fold (Fold) increase of Smn protein: 7-point concentration data, fold relative to vehicle control. A digest of the protocol: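 Smn protein quantified by HTRF with anti-SMN d2/kryptate pair, 665/620 nm ratio blank-corrected, in RIPA lysates of GM03813 fibroblasts after 48 h compound exposure (7 concentrations, 3.16-fold steps, triplicates). Values: concentration producing 1.5× vehicle Smn level, and maximal fold increase.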
On the technique in general: In TR-FRET formats the signal depends on donor and acceptor labels being close together.

For series [2], the system named is SMN2 minigene mRNA (SMN2-A minigene) in HEK293H cells. The series is described as follows: SMN2 minigene mRNA splicing RT-qPCR assay in cultured cells. The format is cell-based, human. To be noted: Homo sapiens, HEK293-H; concentration increasing full length SMN2 mRNA 1.5-fold relative to vehicle-treated cells; HEK293H cells with SMN2-A minigene, 24 hours, 7-point concentration data; read-out: EC1.5x for production of full length SMN2 mRNA. A digest of the protocol:
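EC1.5× = concentration raising full-length SMN2 minigene mRNA 1.5-fold over vehicle, from 7-point curves in duplicate. Stably transfected HEK293H cells exposed 24 h at 37 °C; lysates assayed by multiplex RT-qPCR, minigene FL signal normalized to GAPDH via modified ΔΔCt.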
Background: Real-time PCR tracks product formation cycle by cycle.

For `CCN1CCC(c2ccc3nc(-c4cc5c(C)nc(C)cn5n4)cc(=O)n3n2)CC1` [Compound 514, 2-(4,6-dimethylpyrazolo[1,5-a]pyrazin-2-yl)-7-(1-ethylpiperidin-4-yl)-4H-pyrimido[1,2-b]pyridazin-4-one], the melting point fell in the range of 283 to 285 °C. In series [1], the “EC1.5x for Smn protein expression” value was “** (an EC1.5× between >1 μM and ≤3 μM is indicated by two stars (**))”; the “maximum fold (Fold) increase of Smn protein” value (“maximum fold (Fold) increase” below) is “***** (a fold increase >1.65 is indicated by five stars (*****))”. Also, the EC (1.5-fold increase) in series [2] lay in the range of 0.1 to 0.3 µM.
In turn, `Cc1cn2nc(-c3cc(=O)n4cc(N5CCC6NCCC6C5)ccc4n3)cc2c(C)n1` (stereo not shown) [Compound 515, 2-(4,6-dimethylpyrazolo[1,5-a]pyrazin-2-yl)-7-(octahydro-5H-pyrrolo[3,2-c]pyridin-5-yl)-4H-pyrido[1,2-a]pyrimidin-4-one] displayed a melting point of 198 to 200 °C. Also, in series [1], the “EC1.5x for Smn protein expression” value is reported as “**** (an EC1.5x≤0.3 μM is indicated by four stars (****))” and the “maximum fold (Fold) increase” value is “***** (a fold increase >1.65 is indicated by five stars (*****))”. Besides, in series [2], the EC (1.5-fold increase) was below 0.1 µM.
`Cc1cn2cc(-c3cc(=O)n4cc(C5CCNCC5)ccc4n3)cc(Cl)c2n1` [Compound 516, 2-(8-chloro-2-methylimidazo[1,2-a]pyridin-6-yl)-7-(piperidin-4-yl)-4H-pyrido[1,2-a]pyrimidin-4-one] gave a melting point of 287 to 293 °C. In series [1], the “EC1.5x for Smn protein expression” value is given as “**** (an EC1.5x≤0.3 μM is indicated by four stars (****))”; the “maximum fold (Fold) increase” value was “**** (a fold increase between >1.5 and ≤1.65 is indicated by four stars (****))”. Also, the EC (1.5-fold increase) in series [2] was below 0.1 µM.
The compound `Cc1cn2cc(-c3cc(=O)n4cc(C5CCN(C)CC5)ccc4n3)cc(Cl)c2n1` [Compound 517, 2-(8-chloro-2-methylimidazo[1,2-a]pyridin-6-yl)-7-(1-methylpiperidin-4-yl)-4H-pyrido[1,2-a]pyrimidin-4-one] registered a melting point of 292 to 296 °C. Moreover, in series [1], the “EC1.5x for Smn protein expression” value is recorded as “**** (an EC1.5x≤0.3 μM is indicated by four stars (****))” and the “maximum fold (Fold) increase” value is “***** (a fold increase >1.65 is indicated by five stars (*****))”. Moreover, in series [2], the EC (1.5-fold increase) is below 0.1 µM.
Take `CCN1CCC(c2ccc3nc(-c4cc(Cl)c5nc(C)cn5c4)cc(=O)n3c2)CC1` [Compound 518, 2-(8-chloro-2-methylimidazo[1,2-a]pyridin-6-yl)-7-(1-ethylpiperidin-4-yl)-4H-pyrido[1,2-a]pyrimidin-4-one]: the melting point was 240 to 246 °C. Moreover, in series [1], the “EC1.5x for Smn protein expression” value is given as “**** (an EC1.5x≤0.3 μM is indicated by four stars (****))”; the “maximum fold (Fold) increase” value is “**** (a fold increase between >1.5 and ≤1.65 is indicated by four stars (****))”. Also, in series [2], the EC (1.5-fold increase) was below 0.1 µM.
As for `Cc1cn2cc(-c3cc(=O)n4cc(C5CCN(C(C)C)CC5)ccc4n3)cc(Cl)c2n1` [Compound 519, 2-(8-chloro-2-methylimidazo[1,2-a]pyridin-6-yl)-7-[1-(propan-2-yl)piperidin-4-yl]-4H-pyrido[1,2-a]pyrimidin-4-one], the melting point fell in the range of 279 to 285 °C. In series [1], the “EC1.5x for Smn protein expression” value is on record as “**** (an EC1.5x≤0.3 μM is indicated by four stars (****))” and the “maximum fold (Fold) increase” value was “***** (a fold increase >1.65 is indicated by five stars (*****))”. The EC (1.5-fold increase) in series [2] is below 0.1 µM.
Compound `CN1CCC(c2ccc3nc(-c4ccc5nn(C)cc5c4)cc(=O)n3n2)CC1` [Compound 522, 2-(2-methyl-2H-indazol-5-yl)-7-(1-methylpiperidin-4-yl)-4H-pyrimido[1,2-b]pyridazin-4-one] displayed a melting point of 260 to 262 °C. Further, in series [1], the “EC1.5x for Smn protein expression” value is “*** (an EC1.5× between >0.3 μM and ≤1 μM is indicated by three stars (***))”; the “maximum fold (Fold) increase” value is listed as “***** (a fold increase >1.65 is indicated by five stars (*****))”. In addition, the EC (1.5-fold increase) in series [2] was below 0.1 µM.
`CCN1CCC(c2ccc3nc(-c4ccc5nn(C)cc5c4)cc(=O)n3n2)CC1` [Compound 523, 7-(1-ethylpiperidin-4-yl)-2-(2-methyl-2H-indazol-5-yl)-4H-pyrimido[1,2-b]pyridazin-4-one] registered a melting point of 253 to 255 °C. Also, in series [1], the “EC1.5x for Smn protein expression” value is reported as “**** (an EC1.5x≤0.3 μM is indicated by four stars (****))” and the “maximum fold (Fold) increase” value was “***** (a fold increase >1.65 is indicated by five stars (*****))”. Further, in series [2], the EC (1.5-fold increase) was below 0.1 µM.
On to `Cc1cn2cc(-c3cc(=O)n4nc(C5CCN(C)CC5)ccc4n3)cc(Cl)c2n1` [Compound 524, 2-(8-chloro-2-methylimidazo[1,2-a]pyridin-6-yl)-7-(1-methylpiperidin-4-yl)-4H-pyrimido[1,2-b]pyridazin-4-one], for which the melting point was in the range of 289 to 291 °C. In series [1], the “EC1.5x for Smn protein expression” value was “*** (an EC1.5× between >0.3 μM and ≤1 μM is indicated by three stars (***))”; the “maximum fold (Fold) increase” value is recorded as “***** (a fold increase >1.65 is indicated by five stars (*****))”. The EC (1.5-fold increase) in series [2] fell in the range of 0.1 to 0.3 µM.
With `CCN1CCC(c2ccc3nc(-c4cc(Cl)c5nc(C)cn5c4)cc(=O)n3n2)CC1` [Compound 525, 2-(8-chloro-2-methylimidazo[1,2-a]pyridin-6-yl)-7-(1-ethylpiperidin-4-yl)-4H-pyrimido[1,2-b]pyridazin-4-one], the melting point is 284 to 286 °C. Further, in series [1], the “EC1.5x for Smn protein expression” value was “*** (an EC1.5× between >0.3 μM and ≤1 μM is indicated by three stars (***))”; the “maximum fold (Fold) increase” value was “***** (a fold increase >1.65 is indicated by five stars (*****))”. Moreover, the EC (1.5-fold increase) in series [2] was in the range of 0.1 to 0.3 µM.
For the compound `Cc1cn2cc(-c3cc(=O)n4nc(C5CCN(CCO)CC5)ccc4n3)cc(Cl)c2n1` [Compound 526, 2-(8-chloro-2-methylimidazo[1,2-a]pyridin-6-yl)-7-[1-(2-hydroxyethyl)piperidin-4-yl]-4H-pyrimido[1,2-b]pyridazin-4-one], the melting point lay in the range of 255 to 257 °C. In series [1], the “EC1.5x for Smn protein expression” value is “** (an EC1.5× between >1 μM and ≤3 μM is indicated by two stars (**))”; the “maximum fold (Fold) increase” value was “***** (a fold increase >1.65 is indicated by five stars (*****))”. Moreover, in series [2], the EC (1.5-fold increase) fell in the range of 0.3 to 1 µM.
`Cc1cc2cc(-c3cc(=O)n4cc(N5C[C@@H](C)N[C@@H](C)C5)ccc4n3)oc2c(C)n1` [Compound 527, 2-(5,7-dimethylfuro[2,3-c]pyridin-2-yl)-7-[(3R,5S)-3,5-dimethylpiperazin-1-yl]-4H-pyrido[1,2-a]pyrimidin-4-one]: the melting point lay within 260 to 262 °C. For the same compound, in series [1], the “EC1.5x for Smn protein expression” value is given as “**** (an EC1.5x≤0.3 μM is indicated by four stars (****))” and the “maximum fold (Fold) increase” value was “***** (a fold increase >1.65 is indicated by five stars (*****))”. The EC (1.5-fold increase) in series [2] was below 0.1 µM.
The compound `Cc1cc2cc(-c3cc(=O)n4cc(N5CCC(N(C)C)CC5)ccc4n3)oc2c(C)n1` [Compound 528, 7-[4-(dimethylamino)piperidin-1-yl]-2-(5,7-dimethylfuro[2,3-c]pyridin-2-yl)-4H-pyrido[1,2-a]pyrimidin-4-one] returned a melting point of 200 to 202 °C. Further, in series [1], the “EC1.5x for Smn protein expression” value is “**** (an EC1.5x≤0.3 μM is indicated by four stars (****))”; the “maximum fold (Fold) increase” value is “**** (a fold increase between >1.5 and ≤1.65 is indicated by four stars (****))”. The EC (1.5-fold increase) in series [2] was below 0.1 µM.
In turn, `Cc1cc2cc(-c3cc(=O)n4cc(N5CCN(CCO)CC5)ccc4n3)oc2c(C)n1` [Compound 529, 2-(5,7-dimethylfuro[2,3-c]pyridin-2-yl)-7-[4-(2-hydroxyethyl)piperazin-1-yl]-4H-pyrido[1,2-a]pyrimidin-4-one] came in with a melting point of 256 to 258 °C. In series [1], the “EC1.5x for Smn protein expression” value was “*** (an EC1.5× between >0.3 μM and ≤1 μM is indicated by three stars (***))”; the “maximum fold (Fold) increase” value is “***** (a fold increase >1.65 is indicated by five stars (*****))”. In series [2], the EC (1.5-fold increase) is below 0.1 µM.
For the compound `Cc1cn2nc(-c3cc(=O)n4cc(C5CCN(CCO)CC5)ccc4n3)cc2c(C)n1` [Compound 530, 2-(4,6-dimethylpyrazolo[1,5-a]pyrazin-2-yl)-7-[1-(2-hydroxyethyl)piperidin-4-yl]-4H-pyrido[1,2-a]pyrimidin-4-one], the melting point was 228 to 230 °C. In series [1], the “EC1.5x for Smn protein expression” value was “**** (an EC1.5x≤0.3 μM is indicated by four stars (****))” and the “maximum fold (Fold) increase” value is recorded as “***** (a fold increase >1.65 is indicated by five stars (*****))”. Further, in series [2], the EC (1.5-fold increase) is below 0.1 µM.
As to `Cc1cn2nc(-c3cc(=O)n4cc(N5CCN(CCO)CC5)ccc4n3)cc2c(C)n1` [Compound 531, 2-(4,6-dimethylpyrazolo[1,5-a]pyrazin-2-yl)-7-[4-(2-hydroxyethyl)piperazin-1-yl]-4H-pyrido[1,2-a]pyrimidin-4-one], the melting point fell in the range of 246 to 248 °C. In series [1], the “EC1.5x for Smn protein expression” value was “*** (an EC1.5× between >0.3 μM and ≤1 μM is indicated by three stars (***))”; the “maximum fold (Fold) increase” value is “***** (a fold increase >1.65 is indicated by five stars (*****))”. In series [2], the EC (1.5-fold increase) was 0.1 to 0.3 µM.
